Assay results taken from the NIST ThermoML archive (doi:10.1016/j.fluid.2012.12.036).

Settings: Crystal; for vapor or sublimation pressure: Calculated from knudsen effusion weight loss; for Normal melting temperature: visual observation

Brc1c2ccccc2cc2ccccc12 [9-bromoanthracene]
Settings	Normal melting temperature [°C]	vapor or sublimation pressure [kPa]
–	101.00	–
314.8 K	–	5.1e-06
319.8 K	–	1.06e-05
324.8 K	–	1.71e-05
329.8 K	–	3.26e-05
334.9 K	–	5.32e-05
339.9 K	–	9.3e-05
345 K	–	0.000158
350 K	–	0.000261
355 K	–	0.000418

Brc1ccc2cc3ccccc3cc2c1 [anthracene, 2-bromo-]
Settings	Normal melting temperature [°C]	vapor or sublimation pressure [kPa]
–	220.70	–
334.8 K	–	5.41e-06
339.8 K	–	9.21e-06
344.9 K	–	1.56e-05
350 K	–	2.61e-05
355 K	–	4.15e-05
360.1 K	–	7.18e-05
365.2 K	–	0.000114
370.4 K	–	0.000184
375.3 K	–	0.000287
380.4 K	–	0.000437
385.4 K	–	0.000652
390.4 K	–	0.000887

c1ccc2cc3ccccc3cc2c1 [anthracene]
Settings	Normal melting temperature [°C]	vapor or sublimation pressure [kPa]
–	216.90	–
322.9 K	–	1.82e-05
328 K	–	2.97e-05
333 K	–	5.58e-05
338.1 K	–	8.91e-05
343.1 K	–	0.000146
348.2 K	–	0.000233
